Results: US9334524B2, “Methods for improving and managing nucleoside reverse-transcriptase inhibition based treatment” (priority 2011, dated 2016)
Like-named read-outs stand apart in the source and are kept apart here.

Key:
[1] = tested on: HIV-1 reverse transcriptase; conditions: Strain A#§ (dCK+, CNT2+), 200 μM, 72 hours
Procedure: HIV RT activity was determined in both strains as described in U.S. Pat. No. 5,714,313 as follows. Both HIV1 RT expressing strains were grown in SD-ura+glucose to saturation. 1 DO of saturated culture (about 10^7 cells) was seeded in 1 ml SGal-ura and grew for 6 hrs. Glucose was then added to stop RT activation. After 12 hours, induced cells were seeded at 0.2 DO/ml in SD-His media and incubated for 72 hours. Incubations were performed at 30° C. with shaking Inhibition of HIV-1 RT activity was determined by measuring the inhibition of growth in the presence 200 μM concentration of ABC (Abacavir) or TFV (Tenofovir) inhibitors, as shown in Table II.

[2] = tested on: HIV-1 reverse transcriptase; conditions: Strain A§§ (NT5C+, CNT2+), 200 μM, 72 hours
Procedure: HIV RT activity was determined in both strains as described in U.S. Pat. No. 5,714,313 as follows. Both HIV1 RT expressing strains were grown in SD-ura+glucose to saturation. 1 DO of saturated culture (about 10^7 cells) was seeded in 1 ml SGal-ura and grew for 6 hrs. Glucose was then added to stop RT activation. After 12 hours, induced cells were seeded at 0.2 DO/ml in SD-His media and incubated for 72 hours.

[3] = tested on: HIV-1 reverse transcriptase; format: cell-based; conditions: for inhibition of cell growth, then reverse transcription (OD @ 600 nm): Strain A (not carrying dCK and OAT1), 100 μM, 72 hours, FIG. 1; for % Inhibition of HIV Reverse Transcriptase activity in yeast cells: Strain A (no dCK, no transporter), 200 μM, 72 hours incubation
[4] = tested on: HIV-1 reverse transcriptase; conditions: Strain B## (dCK+, OAT1+ in genome), 100 μM, 72 hours, FIG. 2
Source text: S. cerevisiae strain B (Mat a, URA+, HIS−, LEU+) was transformed, using the standard Lithium Acetate protocol, with a previously linearized by StuI restriction enzyme p426GPDhdCK plasmid that contains the nucleic acid sequences coding for dCK and ura3, and where linearization occurred within the ura3 open reading frame. The new strain (Strain B#) where integration of dCK occurred at the ura3 locus has the following phenotype (Mat a, URA−, HIS−, LEU+, dCK+).
Strain B# was genetically modified by standard methods through transformation with a PCR amplified DNA fragment. This nucleic acid fragment contains the nucleic acid sequence coding for OAT1 transporter flanked by 5′ and 3′ non-coding regions of the leu2 locus. The new modified strain where dCK and OAT1 are integrated in the yeast genome, Strain B## (Mat a, URA−, HIS−, LEU−, dCK+, OAT1+), was transformed with the plasmid pHART21 described in U.S. Pat. No. 5,714,313. HIV-1 RT activity in Strain B## was determined as described in U.S. Pat. No. 5,714,313 after 72 hours incubation in the presence of 100 μM of either AZT, ddC, ddI or d4T.

[5] = tested on: HIV-1 reverse transcriptase; format: cell-based; conditions: for inhibition of cell growth, then reverse transcription (OD @ 600 nm): Strain A# (dCK in genome, OAT1 plasmid), 100 μM, 72 hours, FIG. 1; for inhibition of HIV RT enabled by expression of OAT1: transformed yeast cell expressing OAT1
[6] = tested on: HIV-1 reverse transcriptase; format: cell-based; conditions: for % Inhibition of HIV Reverse Transcriptase activity in yeast cells: Strain A# (dCK+, CNT3+), 200 μM, 72 hours incubation; for inhibition of HIV RT enabled by expression of CNT3: transformed yeast cell expressing CNT3

CC(C)OC(=O)OCOP(=O)(CO[C@H](C)Cn1cnc2c(N)ncnc21)OCOC(=O)OC(C)C [TFV, Tenofovir]
% Inhibition of HIV-1 Reverse transcriptase in modified yeast cells [1]: 96%
% Inhibition of HIV-1 Reverse transcriptase in modified yeast cells [2]: 0%

Nc1ccn([C@H]2CC[C@@H](CO)O2)c(=O)n1 [ddC, Zalcitabine]
inhibition of cell growth, then reverse transcription (OD @ 600 nm) [3]: can not inhibit cell growth
inhibition of cell growth (% inhibition), then reverse transcription, absorbance at 600 nm [4]: inhibits cell growth
inhibition of cell growth, then reverse transcription (OD @ 600 nm) [5]: inhibits cell growth
inhibition of HIV RT enabled by expression of OAT1 [5]: good inhibition

O=c1[nH]cnc2c1ncn2[C@H]1CC[C@@H](CO)O1 [ddI, Didanosine]
inhibition of cell growth, then reverse transcription (OD @ 600 nm) [3]: can not inhibit cell growth
inhibition of cell growth (% inhibition), then reverse transcription, absorbance at 600 nm [4]: inhibits cell growth
inhibition of cell growth, then reverse transcription (OD @ 600 nm) [5]: inhibits cell growth
inhibition of HIV RT enabled by expression of OAT1 [5]: good inhibition

Cc1cn([C@H]2C[C@H](N=[N+]=[N-])[C@@H](CO)O2)c(=O)[nH]c1=O [AZT, Zidovudine]
% Inhibition of HIV Reverse Transcriptase activity in yeast cells [3]: 0%
inhibition of cell growth, then reverse transcription (OD @ 600 nm) [3]: can not inhibit cell growth
% Inhibition of HIV Reverse Transcriptase activity in yeast cells [6]: 31%
inhibition of HIV RT enabled by expression of CNT3 [6]: good inhibition
inhibition of cell growth (% inhibition), then reverse transcription, absorbance at 600 nm [4]: inhibits cell growth
inhibition of cell growth, then reverse transcription (OD @ 600 nm) [5]: inhibits cell growth
inhibition of HIV RT enabled by expression of OAT1 [5]: good inhibition

Nc1nc(NC2CC2)c2ncn([C@H]3C=C[C@@H](CO)C3)c2n1 [ABC, Abacavir]
% Inhibition of HIV-1 Reverse transcriptase in modified yeast cells [1]: 87%
% Inhibition of HIV-1 Reverse transcriptase in modified yeast cells [2]: 0%

Cc1cn([C@H]2C=C[C@@H](CO)O2)c(=O)[nH]c1=O [d4T, Stavudine]
% Inhibition of HIV Reverse Transcriptase activity in yeast cells [3]: 0%
inhibition of cell growth, then reverse transcription (OD @ 600 nm) [3]: can not inhibit cell growth
% Inhibition of HIV Reverse Transcriptase activity in yeast cells [6]: 56%
inhibition of HIV RT enabled by expression of CNT3 [6]: good inhibition
inhibition of cell growth (% inhibition), then reverse transcription, absorbance at 600 nm [4]: inhibits cell growth
inhibition of cell growth, then reverse transcription (OD @ 600 nm) [5]: inhibits cell growth
inhibition of HIV RT enabled by expression of OAT1 [5]: good inhibition
